According to US12187681B2 (Shanghai East Hospital, priority 2019, dated 2025):
Structures can show the parent of a compound that is named as a salt.

What was measured:
[1] = molecular target: T1, CaV1.2 (L-type voltage-dependent calcium channel; CACNA1C, CACNB2, CACNA2D1) (Homo sapiens, UniProt Q13936); assay: CaV1.2 channel whole-cell patch clamp (Ion Channel Activity Measurement); type: cell-based; conditions: human, room temperature; for inhibition at 5 min, 1 μM: pH 7.4, 1 μM test article; for inhibition at 5 min, 10 μM: pH 7.4, 10 μM test article, read-out: CaV 1.2 10 μM (ion-channel inhibition)
T1 construct: expressed in transfected cells; host or cells: CHO
Procedure: • CHO cell line stably expressing human calcium channel, voltage-dependent, L type, • CACNA1C: cDNA strictly similar to GenBank accession number: NM_000719 • CACNB2: cDNA strictly similar to GenBank accession number: NM_000724 • CACNA2D1: cDNA strictly similar to GenBank accession number: NM_000722 Iks Channel Cell Line:
(§1) Cells expressing channels were cultured in medium supplemented with 20% FBS in HAM'S F12 culture dish. Cells grew in a humidified incubator at 37° C. under 5% carbon dioxide. To passage cells, remove poor medium and rinse the cells once with PBS 1X. […] Place plate on a 37° C. warming incubator 5 min. As soon as cells are detached, add 5 ml of 37° C. complete medium. Draw cell suspension into a sterile pipet and homogenize cells gently to dissociate cells aggregates. Amplify or maintain the cells by seeding 2.5*105 cells in a 6 cm dish (final volume: 5 ml). To maintain electrophysiological performances, cell density must not exceed 80%. On the day before patch clamp experiment, 3*103 cells were seeded on coverslips in the 24-well plate and incubated at 37° C. in 5% carbon dioxide.
Bath solution: 140 mM TEA-C1, 2 mM MgCl2·6H2O, 10 mM CaCl2, 10 mM HEPES, 5 mM D-glucose, pH=7.4 with TEA-OH. Pipette solution: 120 mM CsCl, 1 mM MgCl2·6H2O, 10 mM HEPES, 10 mM EGTA, 0.3 mM Na2-GTP, 4 mM Mg-ATP, pH=7.2 with CsOH.
(§2) Glass pipette (BF150-86-10, Sutter Instruments) was made by puller (P97, Sutter Instruments). The glass pipette was manipulated using Micro-manipulator (Carm-C-S, MCI Instruments) under the microscope (AE31EF-INV, Motic). After touching the cell, a slight suction was applied to achieve high seal (GΩ). Fast capacitance (in pF) compensation was made after high seal was achieved; after achieving high seal, the membrane was broken, Cell capacitance (in pF) compensation was made from whole-cell capacitance compensation after the whole cell mode was achieved. No leak subtraction was made.
(§3) Cell was incubated with the test article for 5 minutes, or until the current reached a steady-state level. Multiple concentrations of test article were tested. The test articles were applied gradually from low to high concentration. The test and control solutions were flown into a recording chamber mounted on the stage of an inverted microscope via a gravity-fed solution delivery system. During the experiment, solutions were withdrawn from the recording chamber by vacuum aspiration. Each concentration was tested at multiple times. Each cell acted as its own control. All tests were performed at room temperature (23-25° C.).
Cav1.2 current was recorded under a holding potential at −80 mV and then depolarized to +10 mV for 0.3 seconds. This protocol was repeated at 20 s intervals to observe the effect of test articles on the peak of Cav1.2 current.

[2] = molecular target: T2, hERG (human ether-a-go-go related gene potassium channel, KCNH2) (Homo sapiens, UniProt Q12809); assay: hERG channel whole-cell patch clamp (Ion Channel Activity Measurement); type: cell-based; conditions: human, room temperature; for inhibition at 1 μM: pH 7.4, 1 μM test article; for inhibition at 10 μM: pH 7.4, 10 μM test article
T2 construct: expressed in transfected cells; host or cells: HEK293
Procedure: HEK293 cell line expressing the human ERG (ether-a-go-go related gene) potassium channel (Potassium voltage-gated channel subfamily H member 2). cDNA strictly similar to GenBank accession number: NM_000238
as §1, §2, §3
hERG current was recorded under a holding potential at −80 mV and then depolarized to 30 mV for 2.5 seconds to activate the hERG channel. The peak tail currents were induced by a repolarizing pulse to −50 mV for 4 seconds. This voltage-clamp pulse protocol was performed continuously during the experiment. An interpulse interval of 10 seconds allowed recovery from inactivation. An interpulse of −50 mV test for 0.5 second before 30 mV depolarized step was included for leak current correction

[3] = HEK293 cells expressing the human ERG potassium channel

T2 sequence (Q12809 whole entry): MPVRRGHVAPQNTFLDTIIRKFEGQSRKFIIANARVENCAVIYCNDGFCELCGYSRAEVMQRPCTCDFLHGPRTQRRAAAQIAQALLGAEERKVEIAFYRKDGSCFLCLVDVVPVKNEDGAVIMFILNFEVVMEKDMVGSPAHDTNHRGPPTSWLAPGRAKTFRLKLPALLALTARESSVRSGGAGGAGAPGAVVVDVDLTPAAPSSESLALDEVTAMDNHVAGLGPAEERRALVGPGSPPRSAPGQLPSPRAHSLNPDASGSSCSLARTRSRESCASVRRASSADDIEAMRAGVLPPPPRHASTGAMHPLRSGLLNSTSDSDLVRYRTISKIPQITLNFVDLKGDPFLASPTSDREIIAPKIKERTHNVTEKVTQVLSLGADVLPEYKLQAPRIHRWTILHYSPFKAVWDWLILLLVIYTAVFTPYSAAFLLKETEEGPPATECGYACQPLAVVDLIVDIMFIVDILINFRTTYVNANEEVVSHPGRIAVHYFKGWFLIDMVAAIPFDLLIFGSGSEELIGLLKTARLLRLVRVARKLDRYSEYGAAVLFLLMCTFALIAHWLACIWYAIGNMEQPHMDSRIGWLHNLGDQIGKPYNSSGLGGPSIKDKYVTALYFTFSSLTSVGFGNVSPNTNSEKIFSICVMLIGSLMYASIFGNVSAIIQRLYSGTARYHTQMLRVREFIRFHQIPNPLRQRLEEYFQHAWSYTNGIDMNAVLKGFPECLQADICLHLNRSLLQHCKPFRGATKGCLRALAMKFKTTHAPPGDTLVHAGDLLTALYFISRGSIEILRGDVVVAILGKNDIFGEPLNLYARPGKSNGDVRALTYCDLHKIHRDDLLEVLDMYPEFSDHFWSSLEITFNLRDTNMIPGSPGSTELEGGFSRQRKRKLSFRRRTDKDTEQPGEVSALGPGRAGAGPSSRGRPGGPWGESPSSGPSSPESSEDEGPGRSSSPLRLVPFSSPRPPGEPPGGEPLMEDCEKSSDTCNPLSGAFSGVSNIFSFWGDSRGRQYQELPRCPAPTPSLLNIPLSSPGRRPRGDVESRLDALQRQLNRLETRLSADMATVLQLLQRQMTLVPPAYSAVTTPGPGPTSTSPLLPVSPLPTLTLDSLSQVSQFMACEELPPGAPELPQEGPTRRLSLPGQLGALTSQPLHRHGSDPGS
T1 sequence (Q13936 1-2138 isoform Q13936-12): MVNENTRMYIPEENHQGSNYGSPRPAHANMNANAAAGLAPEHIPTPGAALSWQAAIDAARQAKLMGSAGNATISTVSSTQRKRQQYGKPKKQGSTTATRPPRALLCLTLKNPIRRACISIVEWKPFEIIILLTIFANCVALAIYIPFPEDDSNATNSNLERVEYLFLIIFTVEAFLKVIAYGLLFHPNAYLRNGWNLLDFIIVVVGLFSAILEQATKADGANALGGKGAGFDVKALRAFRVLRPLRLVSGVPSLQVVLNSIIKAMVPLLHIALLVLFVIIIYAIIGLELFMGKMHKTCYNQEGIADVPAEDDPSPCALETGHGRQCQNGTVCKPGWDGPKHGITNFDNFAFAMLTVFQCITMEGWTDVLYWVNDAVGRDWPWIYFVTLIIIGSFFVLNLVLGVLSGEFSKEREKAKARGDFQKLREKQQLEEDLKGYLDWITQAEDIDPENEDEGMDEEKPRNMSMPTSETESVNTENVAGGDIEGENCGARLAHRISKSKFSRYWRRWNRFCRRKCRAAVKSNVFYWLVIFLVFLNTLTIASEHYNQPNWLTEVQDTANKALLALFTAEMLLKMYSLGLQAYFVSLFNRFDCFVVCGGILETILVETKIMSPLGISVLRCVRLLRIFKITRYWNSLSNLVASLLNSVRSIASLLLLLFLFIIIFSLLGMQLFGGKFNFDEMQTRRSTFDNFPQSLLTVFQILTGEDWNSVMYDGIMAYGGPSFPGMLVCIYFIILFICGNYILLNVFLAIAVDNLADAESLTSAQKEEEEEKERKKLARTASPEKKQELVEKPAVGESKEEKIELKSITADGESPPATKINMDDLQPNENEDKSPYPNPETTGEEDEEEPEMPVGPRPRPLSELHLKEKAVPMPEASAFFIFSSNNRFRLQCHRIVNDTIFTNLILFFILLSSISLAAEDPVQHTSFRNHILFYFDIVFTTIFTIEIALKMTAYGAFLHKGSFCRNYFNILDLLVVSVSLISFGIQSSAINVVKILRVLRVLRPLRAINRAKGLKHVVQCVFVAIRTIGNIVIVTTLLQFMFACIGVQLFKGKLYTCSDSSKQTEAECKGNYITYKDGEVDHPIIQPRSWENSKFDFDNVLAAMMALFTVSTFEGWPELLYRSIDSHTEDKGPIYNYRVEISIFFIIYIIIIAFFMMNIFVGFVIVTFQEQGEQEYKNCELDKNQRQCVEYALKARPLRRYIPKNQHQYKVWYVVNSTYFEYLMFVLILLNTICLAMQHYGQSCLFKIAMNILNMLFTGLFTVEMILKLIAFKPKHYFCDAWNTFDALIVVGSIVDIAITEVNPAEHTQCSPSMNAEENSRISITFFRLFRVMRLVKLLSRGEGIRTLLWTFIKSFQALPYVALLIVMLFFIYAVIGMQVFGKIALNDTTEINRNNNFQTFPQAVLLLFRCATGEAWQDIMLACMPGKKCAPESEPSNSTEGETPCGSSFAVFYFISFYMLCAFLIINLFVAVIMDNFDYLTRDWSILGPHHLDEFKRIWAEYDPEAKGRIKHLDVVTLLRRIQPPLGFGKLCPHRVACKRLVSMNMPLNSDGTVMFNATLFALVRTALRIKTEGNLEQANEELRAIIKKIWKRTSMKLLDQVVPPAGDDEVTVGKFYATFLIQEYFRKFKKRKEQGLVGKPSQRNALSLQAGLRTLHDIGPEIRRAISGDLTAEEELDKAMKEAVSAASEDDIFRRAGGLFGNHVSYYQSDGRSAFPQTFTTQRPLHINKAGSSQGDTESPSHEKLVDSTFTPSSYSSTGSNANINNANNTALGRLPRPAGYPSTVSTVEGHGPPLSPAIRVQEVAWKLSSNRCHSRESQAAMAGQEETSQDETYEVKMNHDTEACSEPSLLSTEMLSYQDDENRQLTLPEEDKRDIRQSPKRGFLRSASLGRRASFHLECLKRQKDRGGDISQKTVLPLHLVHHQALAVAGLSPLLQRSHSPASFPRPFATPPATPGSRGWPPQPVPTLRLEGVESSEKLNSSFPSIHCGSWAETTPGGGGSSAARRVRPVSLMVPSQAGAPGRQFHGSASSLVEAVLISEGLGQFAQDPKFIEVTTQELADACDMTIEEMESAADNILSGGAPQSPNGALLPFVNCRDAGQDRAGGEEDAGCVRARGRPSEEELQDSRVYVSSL
T1 sequence (Q08289 1-605 isoform Q08289-2 partner): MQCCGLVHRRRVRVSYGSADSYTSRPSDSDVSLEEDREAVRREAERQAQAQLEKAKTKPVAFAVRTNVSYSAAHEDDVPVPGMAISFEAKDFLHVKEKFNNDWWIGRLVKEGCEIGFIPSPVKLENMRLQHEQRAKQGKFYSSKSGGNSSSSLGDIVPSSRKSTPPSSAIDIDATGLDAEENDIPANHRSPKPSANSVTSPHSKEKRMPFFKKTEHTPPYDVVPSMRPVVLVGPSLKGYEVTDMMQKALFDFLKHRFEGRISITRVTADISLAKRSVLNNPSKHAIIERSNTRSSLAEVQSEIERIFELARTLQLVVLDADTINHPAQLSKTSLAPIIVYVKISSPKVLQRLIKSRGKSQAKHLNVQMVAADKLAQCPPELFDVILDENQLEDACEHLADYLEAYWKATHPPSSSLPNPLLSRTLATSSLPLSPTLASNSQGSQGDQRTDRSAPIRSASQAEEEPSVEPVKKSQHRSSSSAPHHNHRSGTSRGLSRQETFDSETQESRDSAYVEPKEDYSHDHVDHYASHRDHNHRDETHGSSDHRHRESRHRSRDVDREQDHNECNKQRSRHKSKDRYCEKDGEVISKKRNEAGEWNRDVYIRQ
T1 sequence (P54289 25-1091 isoform P54289-2 partner limits assumed): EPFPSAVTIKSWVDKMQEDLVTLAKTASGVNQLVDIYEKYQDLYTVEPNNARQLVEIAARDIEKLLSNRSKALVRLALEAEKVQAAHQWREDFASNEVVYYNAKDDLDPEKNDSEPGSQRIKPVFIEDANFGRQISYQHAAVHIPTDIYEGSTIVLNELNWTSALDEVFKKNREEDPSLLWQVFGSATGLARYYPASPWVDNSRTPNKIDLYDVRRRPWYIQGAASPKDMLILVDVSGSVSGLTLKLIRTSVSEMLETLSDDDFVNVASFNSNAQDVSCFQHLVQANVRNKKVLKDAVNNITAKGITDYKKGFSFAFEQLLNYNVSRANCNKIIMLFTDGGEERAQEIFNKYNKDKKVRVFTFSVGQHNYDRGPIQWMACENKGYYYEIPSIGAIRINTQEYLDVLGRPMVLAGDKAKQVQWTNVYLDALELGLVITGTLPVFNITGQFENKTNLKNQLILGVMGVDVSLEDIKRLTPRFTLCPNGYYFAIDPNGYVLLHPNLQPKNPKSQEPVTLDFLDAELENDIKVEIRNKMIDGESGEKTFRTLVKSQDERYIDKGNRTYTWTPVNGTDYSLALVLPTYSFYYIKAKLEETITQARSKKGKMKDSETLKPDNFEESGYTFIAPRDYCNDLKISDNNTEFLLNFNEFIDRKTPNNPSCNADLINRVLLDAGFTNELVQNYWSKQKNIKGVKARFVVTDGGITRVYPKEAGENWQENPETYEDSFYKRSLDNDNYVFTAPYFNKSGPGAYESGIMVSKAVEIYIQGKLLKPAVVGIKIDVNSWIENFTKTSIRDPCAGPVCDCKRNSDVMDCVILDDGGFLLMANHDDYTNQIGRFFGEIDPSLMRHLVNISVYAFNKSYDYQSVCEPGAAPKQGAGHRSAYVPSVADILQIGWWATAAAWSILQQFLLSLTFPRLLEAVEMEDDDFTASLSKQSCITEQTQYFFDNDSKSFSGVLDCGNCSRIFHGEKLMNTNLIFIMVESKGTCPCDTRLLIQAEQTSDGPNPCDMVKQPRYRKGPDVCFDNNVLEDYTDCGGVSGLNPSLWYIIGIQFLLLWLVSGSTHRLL
T1 sequence (P54289 957-1103 partner limits assumed): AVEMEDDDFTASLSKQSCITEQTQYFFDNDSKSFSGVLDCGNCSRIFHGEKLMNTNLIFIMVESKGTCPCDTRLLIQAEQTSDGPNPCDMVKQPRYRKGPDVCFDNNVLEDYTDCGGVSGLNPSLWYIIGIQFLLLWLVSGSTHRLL

Row | Structure (SMILES) | inhibition at 5 min, 1 μM [1] [%] | inhibition at 5 min, 10 μM [1] [%] | inhibition at 1 μM [2, 3] [%] | inhibition at 10 μM [2, 3] [%] | inhibition at 1 μM [2] [%] | inhibition at 10 μM [2] [%]
1 | CCN(CC)CCOc1c(C)cc2ccccc2c1Cc1c(O)c(C)cc2ccccc12 [Compound A108, 1-((2-(2-(diethylamino)ethoxy)-3-methylnaphthalen-1-yl)methyl)-3-methylnaphthalen-2-ol] | < 25 | 25 to 50 | < 25 | < 25 | – | –
2 | Oc1c(Cl)cc2ccccc2c1Cc1c(O)c(Cl)cc2ccccc12 [Compound A046, 1,1′-methylenebis(3-chloronaphthalen-2-ol)] | < 25 | < 25 | < 25 | < 25 | – | –
3 | COc1ccc2ccccc2c1Nc1c([N+](=O)[O-])ccc2ccccc12 [Compound A196, 2-methoxy-N-(2-nitronaphthalen-1-yl)naphthalen-1-amine] | < 25 | < 25 | < 25 | < 25 | – | –
4 | COc1cc2ccccc2c(Cc2c(O)c(OC)cc3ccccc23)c1O [Compound A050, 1,1′-methylenebis(3-methoxynaphthalen-2-ol)] | < 25 | < 25 | < 25 | < 25 | – | –
5 | COc1ccc2ccccc2c1Cc1c(OCCN(CCO)CCO)ccc2ccccc12 [Compound A195, 2,2′-((2-((1-((2-methoxynaphthalen-1-yl)methyl)naphthalen-2-yl)oxy)ethyl)azanediyl)bis(ethan-1-ol)] | < 25 | 75 to 100 | 75 to 100 | 75 to 100 | – | –
6 | Oc1ccc2c(c1Cc1c(O)ccc3ccccc13)CNCC2 [Compound A141, 8-((2-hydroxynaphthalen-1-yl)methyl)-1,2,3,4-tetrahydroisoquinolin-7-ol] | < 25 | < 25 | < 25 | 25 to 50 | – | –
7 | Oc1ccc2c(c1Cc1c(O)ccc3c1CNCC3)CCCC2 [Compound A141-I-1, 8-((2-hydroxy-5,6,7,8-tetrahydronaphthalen-1-yl)methyl)-1,2,3,4-tetrahydroisoquinolin-7-ol] | < 25 | < 25 | < 25 | < 25 | – | –
8 | CC(C)c1cc2ccccc2c(Cc2c(O)c(C(C)C)cc3ccccc23)c1O [Compound A081, 1,1′-methylenebis(3-isopropylnaphthalen-2-ol)] | < 25 | 25 to 50 | < 25 | 50 to 75 | – | –
9 | COc1cccc(-c2ccncc2)c1Cc1c(O)cccc1-c1ccncc1 [Compound A118-I-1, 2-(2-methoxy-6-(pyridin-4-yl)benzyl)-3-(pyridin-4-yl)phenol] | < 25 | < 25 | < 25 | 25 to 50 | – | –
10 | CCN(CC)CCOc1c(C(C)C)cc2ccccc2c1Cc1c(O)c(C(C)C)cc2ccccc12 [Compound A102, 1-((2-(2-(diethylamino)ethoxy)-3-isopropylnaphthalen-1-yl)methyl)-3-isopropylnaphthalen-2-ol hydrochloride Salt] | < 25 | 75 to 100 | 50 to 75 | 75 to 100 | – | –
11 | COc1ccc2ccccc2c1Cc1c(OCCO)ccc2ccccc12 [Compound A139-2, 2-((1-((2-methoxynaphthalen-1-yl)methyl)naphthalen-2-yl)oxy)ethan-1-ol] | < 25 | 75 to 100 | 75 to 100 | 75 to 100 | – | –
12 | CCOCOc1ccc2ccccc2c1Cc1c(OCC2CCNCC2)ccc2ccccc12 [Compound A279, 4-(((1-((2-(ethoxymethoxy)naphthalen-1-yl)methyl)naphthalen-2-yl)oxy)methyl)piperidine] | < 25 | 75 to 100 | 75 to 100 | 75 to 100 | – | –
13 | CCOCOc1ccc2ccccc2c1Cc1c(OCCN)ccc2ccccc12 [Compound A244, 2-((1-((2-(ethoxymethoxy)naphthalen-1-yl)methyl)naphthalen-2-yl)oxy)ethan-1-amine] | < 25 | 25 to 50 | 75 to 100 | 75 to 100 | – | –
14 | CCOc1ccc2ccccc2c1Cc1c(OCCN2CCCC2)ccc2ccccc12 [Compound A255, 1-(2-((1-((2-ethoxynaphthalen-1-yl)methyl)naphthalen-2-yl)oxy)ethyl)pyrrolidine] | < 25 | 75 to 100 | 75 to 100 | 75 to 100 | – | –
15 | CCN(CC)CCNC(=O)c1ccc2ccccc2c1Cc1c(OC)ccc2ccccc12 [Compound A238, N-(2-(diethylamino)ethyl)-1-((2-methoxynaphthalen-1-yl)methyl)-2-naphthamide] | 25 to 50 | 75 to 100 | 75 to 100 | 75 to 100 | – | –
16 | COc1ccc(COCc2ccc3ccccc3c2C(O)c2c(COCc3ccc(OC)cc3)ccc3ccccc23)cc1 [Compound A080, bis(2-(((4-methoxybenzyl)oxy)methyl)naphthalen-1-yl)methanol] | < 25 | 25 to 50 | < 25 | < 25 | – | –
17 | NC(=O)c1ccc2ccccc2c1Cc1c(C(N)=O)ccc2ccccc12 [Compound A101, 1,1′-methylenebis(2-naphthamide)] | < 25 | < 25 | < 25 | 50 to 75 | – | –
18 | Oc1cccc2c1C(c1c(O)ccc3ccccc13)CC2 (centres unmarked) [Compound A079, 1-(7-hydroxy-2,3-dihydro-1H-inden-1-yl)naphthalen-2-ol] | < 25 | 50 to 75 | < 25 | 75 to 100 | – | –
19 | COc1ccc2ccccc2c1Cc1c(OCC2CCNCC2)ccc2ccccc12 [Compound A271, 4-(((1-((2-methoxynaphthalen-1-yl)methyl)naphthalen-2-yl)oxy)methyl)piperidine] | 50 to 75 | – | 75 to 100 | 75 to 100 | – | –
20 | CCN(CC)CCOc1ccc2ccccc2c1Cc1c(OCc2ccccc2)ccc2ccccc12 [Compound A290, 2-((1-((2-(benzyloxy)naphthalen-1-yl)methyl)naphthalen-2-yl)oxy)-N,N-diethylethan-1-amine] | 25 to 50 | 50 to 75 | 75 to 100 | 75 to 100 | – | –
21 | COc1cccc(C2CCNCC2)c1Cc1c(OC)cccc1C1CCNCC1 [Compound A194] | 25 to 50 | 50 to 75 | – | – | < 25 | 25 to 50
22 | CCCCCCOc1ccc2ccccc2c1Cc1c(OCCN)ccc2ccccc12 [Compound A247, 2-((1-((2-(hexyloxy)naphthalen-1-yl)methyl)naphthalen-2-yl)oxy)ethan-1-amine] | < 25 | – | < 25 | – | – | –
23 | Nc1ccc2ccccc2c1Cc1c(N)ccc2ccccc12 [Compound A022, 1,1′-methylenebis(naphthalen-2-amine)] | < 25 | 50 to 75 | – | – | < 25 | 50 to 75
